{"source": "patent US11959083B2", "about": "“Immunosuppression-reverting oligonucleotides inhibiting the expression of CD39” (Secarna Pharmaceuticals GmbH & Co. KG, priority 2016, dated 2024)", "test_system": "hCD39 protein", "test": "hCD39 protein expression in primary human CD8+ and CD4+ T cells after oligonucleotide removal (flow cytometry)", "format": "cell-based", "settings": "10 μM for six days with anti-CD3, compared to untreated control cells", "experimental": "Thereafter, oligonucleotides and anti-CD3 were removed and hCD39 protein expression was analyzed by flow cytometry three, six, and eleven days after oligonucleotide removal. CD39 protein expression is depicted as mean fluorescence intensity (MFI) and was calculated by subtracting the MFI of the unspecific isotype control from the MFI of CD39. Depicted is the mean of duplicate wells+/−SD.\nA04040H had shown very potent activity in suppressing hCD39 expression on mRNA- and protein-level in human cancer cell lines. In the next step, its activity in primary human T cells was investigated. Furthermore, the persistence of the effects after antisense oligonucleotide removal was examined. Therefore, CD8^+ and CD4^+ T cells were isolated from peripheral blood and activated for a total treatment time of six days with anti-CD3 in the presence of 10 μM of the hCD39 specific antisense oligonucleotide A04040H (black column) or the control oligonucleotide S6 (white column), which is not complementary to any human mRNA. […] Thereafter, oligonucleotides were removed and hCD39 protein expression was analyzed three, six, and eleven days after oligonucleotide removal by flow cytometry (FIG. 9).", "note": "l = locked nucleic acid (LNA); d = 2'-deoxy (DNA)"}
{"substance": "+G*+T*+T*T*G*T*G*T*G*A*G*A*G*C*+T*+T (antisense GTTTGTGTGAGAGCTT; sugars from the 5' end l3 d11 l2, all phosphorothioate, methylation of C not given here) [A04040H]", "values": [{"measurement": "hCD39 protein expression (MFI) after oligonucleotide removal", "result": "significantly suppressed hCD39 protein expression for a duration of at least six days after removal"}]}
